Reference: BindingDB's records for doi:10.1038/sj.bjp.0701860 (Universit&Aagrove, 1998)

Target: Melatonin receptor type 1A (Homo sapiens, UniProt P48039)
Sequence (P48039 whole entry): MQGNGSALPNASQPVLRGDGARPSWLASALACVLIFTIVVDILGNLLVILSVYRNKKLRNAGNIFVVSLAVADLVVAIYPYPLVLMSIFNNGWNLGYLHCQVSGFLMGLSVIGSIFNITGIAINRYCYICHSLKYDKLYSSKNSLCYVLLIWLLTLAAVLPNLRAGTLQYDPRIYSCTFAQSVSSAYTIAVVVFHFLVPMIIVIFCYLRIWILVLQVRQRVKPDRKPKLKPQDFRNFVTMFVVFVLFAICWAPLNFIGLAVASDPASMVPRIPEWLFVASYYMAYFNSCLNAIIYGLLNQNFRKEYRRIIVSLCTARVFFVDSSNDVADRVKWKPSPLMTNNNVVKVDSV

Structure (SMILES) | Ki
COc1ccc2[nH]c(-c3ccccc3)c(CCNC(C)=O)c2c1 [Melatonin,2-Phenyl] | 0.02 nM
CC(=O)n1cc(CCN)c2cc(O)ccc21 [NSC_260803] | 484 nM
